Data set [1] concerns HBV viral load in AD38 cells. The data set is described as follows: Viral load production in AD38 cells, quantitative PCR of the core sequence in supernatant. The data set is classed as cell-based. The conditions noted are these: Hepatitis B virus, 144 h, 10 μM compound, 6 days at 37° C., supernatant qPCR, relative to DMSO control; read-out: AD38 Viral Load (%) (VL with cmpd/VL in DMSO control) at 10 μM. On the technique in general: In qPCR the cycle at which signal appears reflects the starting amount.

Data set [2] has as its system AD38 cells. Description: Viability of AD38 cells (Promega CellTiter-Glo). The format is cell-based. The conditions noted are these: 10 μM compound, 6 days, CellTiter-Glo luminescence normalized to DMSO control (100%). In outline: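 After 6 days of compound exposure at 37° C (compound added as 10× solution in 10% DMSO; 50,000 cells/well, collagen-coated), medium was replaced with tetracycline-free DMEM/F12, 2% FBS, 1% DMSO. CellTiter-Glo luminescence was then recorded and normalized to DMSO-treated wells as 100% viability.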
On the technique in general: In ATP-based viability assays light output follows the ATP content of the culture.

With `COc1ccc(-c2ncc(CNC(=O)c3ccc4c(c3)NC(=O)c3ccccc3S4(=O)=O)s2)cc1` [compound 1596], the activity at 10 µM in data set [1] turned out to be 3.8%. The “AD38 Viability Normalized Result (cmpd/DMSO %) at 10 μM” value in data set [2] amounted to 25%.

For `O=C(NCc1cnc(N2CCOCC2)s1)c1ccc2c(c1)NC(=O)c1ccccc1S2` [compound 1598], in data set [1], the activity at 10 µM turned out to be 1.4%. Moreover, in data set [2], the “AD38 Viability Normalized Result (cmpd/DMSO %) at 10 μM” value came to 97%.

For `O=C(O)c1ccc(-c2ncc(CNC(=O)c3ccc4c(c3)NC(=O)c3ccccc3S4)s2)cc1` [compound 1599, 4-(5-((11-oxo-10, 11-dihydrodibenzo [b, f] [1, 4]thiazepine-8-carboxamido)methyl)thiazol-2-yl) benzoic acid], the activity at 10 µM in data set [1] came to 5.9%. In addition, in data set [2], the “AD38 Viability Normalized Result (cmpd/DMSO %) at 10 μM” value is on record as 61%.

Consider `O=C(O)CNc1ncc(CNC(=O)c2ccc3c(c2)NC(=O)c2ccccc2S3)s1` [compound 1602, (5-((11-oxo-10, 11-dihydrodibenzo [b, f] [1, 4]thiazepine-8-carboxamido)methyl)thiazol-2-yl) glycine], for which the activity at 10 µM in data set [1] came out at 59.8%. Moreover, the “AD38 Viability Normalized Result (cmpd/DMSO %) at 10 μM” value in data set [2] turned out to be 97%.

As to `O=C(O)CSc1ncc(CNC(=O)c2ccc3c(c2)NC(=O)c2ccccc2S3)s1` [compound 1603, 2-((5-((11-oxo-10, 11-dihydrodibenzo [b, f] [1, 4]thiazepine-8-carboxamido)methyl)thiazol-2-yl)thio) acetic acid], the activity at 10 µM in data set [1] is 32.8%. Also, in data set [2], the “AD38 Viability Normalized Result (cmpd/DMSO %) at 10 μM” value was found to be 108%.

Consider `CN(C)CCSc1ncc(CNC(=O)c2ccc3c(c2)NC(=O)c2ccccc2S3)s1` [compound 1604], for which, in data set [1], the activity at 10 µM was found to be 0.9%. Further, the “AD38 Viability Normalized Result (cmpd/DMSO %) at 10 μM” value in data set [2] is 82%.

With `O=C(NCc1cnc(-c2ccc(O)cc2)s1)c1ccc2c(c1)NC(=O)c1ccccc1S2` [compound 1605], the activity at 10 µM in data set [1] turned out to be 0.7%. Further, the “AD38 Viability Normalized Result (cmpd/DMSO %) at 10 μM” value in data set [2] turned out to be 96%.

For the compound `COc1ccc(-c2ncc(CNC(=O)c3ccc4c(c3)NC(=O)c3ccccc3S4)s2)cc1` [compound 1606], the activity at 10 µM in data set [1] turned out to be 3%. Besides, in data set [2], the “AD38 Viability Normalized Result (cmpd/DMSO %) at 10 μM” value is listed as 91%.

Turning to `O=C(O)COc1ccc(-c2ncc(CNC(=O)c3ccc4c(c3)NC(=O)c3ccccc3S4)s2)cc1` [compound 1607, 2-(4-(5-((11-oxo-10, 11-dihydrodibenzo [b, f] [1, 4]thiazepine-8-carboxamido)methyl)thiazol-2-yl)phenoxy) acetic acid], the activity at 10 µM in data set [1] was 52.8%. Moreover, the “AD38 Viability Normalized Result (cmpd/DMSO %) at 10 μM” value in data set [2] is reported as 98%.

As for `CN(C)CCOc1ccc(-c2ncc(CNC(=O)c3ccc4c(c3)NC(=O)c3ccccc3S4)s2)cc1` [compound 1608], the activity at 10 µM in data set [1] stood at 12.4%. For the same compound, the “AD38 Viability Normalized Result (cmpd/DMSO %) at 10 μM” value in data set [2] is 98%.

Take `O=C(NCc1cnc(N2CCOCC2)s1)c1ccc2c(c1)NC(=O)c1ccccc1O2` [compound 1611]: the activity at 10 µM in data set [1] came out at 1.4%. In addition, in data set [2], the “AD38 Viability Normalized Result (cmpd/DMSO %) at 10 μM” value was 100%.

As to `O=C(O)c1ccc(-c2ncc(CNC(=O)c3ccc4c(c3)NC(=O)c3ccccc3O4)s2)cc1` [compound 1612, 4-(5-((11-oxo-10, 11-dihydrodibenzo [b, f] [1, 4]oxazepine-8-carboxamido)methyl)thiazol-2-yl) benzoic acid], the activity at 10 µM in data set [1] was determined as 6.9%. For the same compound, in data set [2], the “AD38 Viability Normalized Result (cmpd/DMSO %) at 10 μM” value is 105%.

As to `CN(C)CCOc1ncc(CNC(=O)c2ccc3c(c2)NC(=O)c2ccccc2O3)s1` [compound 1614, N-((2-(2-(dimethylamino)ethoxy)thiazol-5-yl)methyl)-11-oxo-10, 11-dihydrodibenzo [b, f] [1, 4] oxazepine-8-carboxamide], the activity at 10 µM in data set [1] turned out to be 8.5%. For the same compound, in data set [2], the “AD38 Viability Normalized Result (cmpd/DMSO %) at 10 μM” value is listed as 98%.

With `O=C(O)CNc1ncc(CNC(=O)c2ccc3c(c2)NC(=O)c2ccccc2O3)s1` [compound 1615, (5-((11-oxo-10, 11-dihydrodibenzo [b, f] [1, 4]oxazepine-8-carboxamido)methyl)thiazol-2-yl) glycine], the activity at 10 µM in data set [1] was found to be 54.9%. The “AD38 Viability Normalized Result (cmpd/DMSO %) at 10 μM” value in data set [2] was 103%.

With `O=C(O)CSc1ncc(CNC(=O)c2ccc3c(c2)NC(=O)c2ccccc2O3)s1` [compound 1616, 2-((5-((11-oxo-10, 11-dihydrodibenzo [b, f] [1, 4]oxazepine-8-carboxamido)methyl)thiazol-2-yl)thio) acetic acid], the activity at 10 µM in data set [1] worked out at 105%. Also, in data set [2], the “AD38 Viability Normalized Result (cmpd/DMSO %) at 10 μM” value is on record as 103%.

For the compound `CN(C)CCSc1ncc(CNC(=O)c2ccc3c(c2)NC(=O)c2ccccc2O3)s1` [compound 1617], the activity at 10 µM in data set [1] came to 2.2%. In data set [2], the “AD38 Viability Normalized Result (cmpd/DMSO %) at 10 μM” value came out at 101%.

In the case of `O=C(NCc1cnc(-c2ccc(O)cc2)s1)c1ccc2c(c1)NC(=O)c1ccccc1O2` [compound 1618], in data set [1], the activity at 10 µM was determined as 1.9%. Further, the “AD38 Viability Normalized Result (cmpd/DMSO %) at 10 μM” value in data set [2] came to 100%.

On to `COc1ccc(-c2ncc(CNC(=O)c3ccc4c(c3)NC(=O)c3ccccc3O4)s2)cc1` [compound 1619], for which the activity at 10 µM in data set [1] was 1.3%. Further, the “AD38 Viability Normalized Result (cmpd/DMSO %) at 10 μM” value in data set [2] stood at 95%.

As for `O=C(O)COc1ccc(-c2ncc(CNC(=O)c3ccc4c(c3)NC(=O)c3ccccc3O4)s2)cc1` [compound 1620, 2-(4-(5-((11-oxo-10, 11-dihydrodibenzo [b, f] [1, 4]oxazepine-8-carboxamido)methyl)thiazol-2-yl)phenoxy) acetic acid], the activity at 10 µM in data set [1] came to 41.9%. Also, in data set [2], the “AD38 Viability Normalized Result (cmpd/DMSO %) at 10 μM” value was 103%.

Turning to `CN(C)CCOc1ccc(-c2ncc(CNC(=O)c3ccc4c(c3)NC(=O)c3ccccc3O4)s2)cc1` [compound 1621], the activity at 10 µM in data set [1] came to 25.9%. Besides, the “AD38 Viability Normalized Result (cmpd/DMSO %) at 10 μM” value in data set [2] was 81%.

`O=C(NCc1cnc(-c2cccnc2)s1)c1ccc2c(c1)NC(=O)c1ccccc1S2(=O)=O` [compound 1624]: the activity at 10 µM in data set [1] amounted to 0.8%. In data set [2], the “AD38 Viability Normalized Result (cmpd/DMSO %) at 10 μM” value is on record as 98%.

Consider `O=C(NCc1cnc(-c2ccncc2)s1)c1ccc2c(c1)NC(=O)c1ccccc1S2(=O)=O` [compound 1625], for which, in data set [1], the activity at 10 µM stood at 51.9%. Moreover, in data set [2], the “AD38 Viability Normalized Result (cmpd/DMSO %) at 10 μM” value was determined as 96%.

Turning to `O=C(NCc1cnc(-c2cncnc2)s1)c1ccc2c(c1)NC(=O)c1ccccc1S2(=O)=O` [compound 1626], the activity at 10 µM in data set [1] turned out to be 2.7%. In addition, the “AD38 Viability Normalized Result (cmpd/DMSO %) at 10 μM” value in data set [2] turned out to be 99%.

As to `N#Cc1ncc(CNC(=O)c2ccc3c(c2)NC(=O)c2ccccc2S3)s1` [compound 1627], the activity at 10 µM in data set [1] turned out to be 6%. The “AD38 Viability Normalized Result (cmpd/DMSO %) at 10 μM” value in data set [2] is 63%.

Consider `N#Cc1ncc(CNC(=O)c2ccc3c(c2)NC(=O)c2ccccc2S3(=O)=O)s1` [compound 1628], for which, in data set [1], the activity at 10 µM is 21.8%. In addition, in data set [2], the “AD38 Viability Normalized Result (cmpd/DMSO %) at 10 μM” value is reported as 95%.

As to `O=C(NCc1cnc(C(F)(F)F)s1)c1ccc2c(c1)NC(=O)c1ccccc1O2` [compound 1629], the activity at 10 µM in data set [1] came out at 3.2%. Further, in data set [2], the “AD38 Viability Normalized Result (cmpd/DMSO %) at 10 μM” value was 107%.

Take `CN(C)C1CCN(c2ncc(CNC(=O)c3ccc4c(c3)NC(=O)c3ccccc3S4(=O)=O)s2)CC1` [compound 1636]: the activity at 10 µM in data set [1] stood at 76.9%. For the same compound, the “AD38 Viability Normalized Result (cmpd/DMSO %) at 10 μM” value in data set [2] stood at 95%.

`O=C(NCc1cnc(-c2ccc3[nH]cnc3c2)s1)c1ccc2c(c1)NC(=O)c1ccccc1S2(=O)=O` [compound 1637]: the activity at 10 µM in data set [1] was 2.3%. Further, the “AD38 Viability Normalized Result (cmpd/DMSO %) at 10 μM” value in data set [2] came out at 101%.

As for `CN(C)c1ccc(-c2ncc(CNC(=O)c3ccc4c(c3)NC(=O)c3ccccc3S4(=O)=O)s2)cc1` [compound 1645], the activity at 10 µM in data set [1] was determined as 6.7%. The “AD38 Viability Normalized Result (cmpd/DMSO %) at 10 μM” value in data set [2] stood at 101%.

As to `CN1CCN(c2ncc(CNC(=O)c3ccc4c(c3)NC(=O)c3ccccc3S4(=O)=O)s2)CC1` [compound 1648], in data set [1], the activity at 10 µM came to 9.9%. Also, the “AD38 Viability Normalized Result (cmpd/DMSO %) at 10 μM” value in data set [2] is 95%.

In the case of `O=C(NCc1nccs1)c1ccc2c(c1)NC(=O)c1ccccc1S2(=O)=O` [compound 1650], the activity at 10 µM in data set [1] came to 58.8%. In addition, in data set [2], the “AD38 Viability Normalized Result (cmpd/DMSO %) at 10 μM” value stood at 82%.

For the compound `Cl.N=C(N)c1ccc(-c2ncc(CNC(=O)c3ccc4c(c3)NC(=O)c3ccccc3S4(=O)=O)s2)cc1` [compound 1653, N-((2-(4-carbamimidoylphenyl)thiazol-5-yl)methyl)-11-oxo-10, 11-dihydrodibenzo [b, f] [1, 4] thiazepine-8-carboxamide 5,5-dioxide hydrochloride], the activity at 10 µM in data set [1] worked out at 65.4%. Moreover, in data set [2], the “AD38 Viability Normalized Result (cmpd/DMSO %) at 10 μM” value is 108%.

As for `Cl.NCc1ccc(-c2ncc(CNC(=O)c3ccc4c(c3)NC(=O)c3ccccc3S4(=O)=O)s2)cc1` [compound 1654, N-((2-(4-(aminomethyl)phenyl)thiazol-5-yl)methyl)-11-oxo-10, 11-dihydrodibenzo [b, f] [1, 4] thiazepine-8-carboxamide 5,5-dioxide hydrochloride], in data set [1], the activity at 10 µM came to 0.5%. The “AD38 Viability Normalized Result (cmpd/DMSO %) at 10 μM” value in data set [2] came to 94%.

Turning to `CN(C)CCOc1ncc(CN(C)C(=O)c2ccc3c(c2)NC(=O)c2ccccc2S3(=O)=O)s1` [compound 1660, N-((2-(2-(dimethylamino)ethoxy)thiazol-5-yl)methyl)-N-methyl-11-oxo-10, 11-dihydrodibenzo [b, f] [1, 4] thiazepine-8-carboxamide 5,5-dioxide], the activity at 10 µM in data set [1] came to 86.8%. In addition, in data set [2], the “AD38 Viability Normalized Result (cmpd/DMSO %) at 10 μM” value was 102%.

Take `CN(Cc1cnc(-c2ccc(O)cc2)s1)C(=O)c1ccc2c(c1)NC(=O)c1ccccc1S2(=O)=O` [compound 1661]: the activity at 10 µM in data set [1] came out at 45.2%. Besides, the “AD38 Viability Normalized Result (cmpd/DMSO %) at 10 μM” value in data set [2] stood at 90%.

(Values after patent US11814376B2, “Hepatitis b core protein modulators” (Assembly Biosciences, Inc., priority 2015, dated 2023).)
